For 6 compounds, IC50 results are on record in patent US20250215013A1, “SUBSTITUTED TRICYCLIC COMPOUNDS AS PARP INHIBITORS AND THE USE THEREOF” (IMPACT THERAPEUTICS (SHANGHAI), INC., priority 2022, published 2025).

Usually IC50 stands for the midpoint of a concentration-inhibition curve.

Each structure is given as a SMILES string. Like-named read-outs stand apart in the source and are kept apart here.

Assay [1] has as its target recombinant poly(ADP-ribose) polymerase 2 (PARP2) (Homo sapiens, UniProt Q9UGN5). The assay is described as follows: PARP2 chemiluminescent assay. It is filed as biochemical. Particulars: inhibition of PARP2 enzyme activity, chemiluminescence.
Assay [2] concerns the target T1, recombinant poly(ADP-ribose) polymerase 1 (PARP1) (Homo sapiens (Human), UniProt P09874).
The test system of the next assay is MDA-MB-436 cells. The assay is described as follows: Growth inhibition assay against BRCA mutant human breast cancer MDA-MB-436 cell line (CCK-8). Type of assay: cell-based. Particulars: Homo sapiens, MDA-MB-436, […], proliferation of MDA-MB-436 cells, 7 days.
Assay [3] addresses T1, recombinant poly(ADP-ribose) polymerase 1 (PARP1). The assay is described as follows: biochemical.
In a further assay the target is PDE3A (Homo sapiens (Human), UniProt Q14432). As to the kind of experiment: PDE3A fluorescence polarization (FP) assay. It is filed as biochemical. The settings on record: PDE3A enzyme activity, FAM-cAMP substrate.
Chain of PDE3A (Q14432 whole entry): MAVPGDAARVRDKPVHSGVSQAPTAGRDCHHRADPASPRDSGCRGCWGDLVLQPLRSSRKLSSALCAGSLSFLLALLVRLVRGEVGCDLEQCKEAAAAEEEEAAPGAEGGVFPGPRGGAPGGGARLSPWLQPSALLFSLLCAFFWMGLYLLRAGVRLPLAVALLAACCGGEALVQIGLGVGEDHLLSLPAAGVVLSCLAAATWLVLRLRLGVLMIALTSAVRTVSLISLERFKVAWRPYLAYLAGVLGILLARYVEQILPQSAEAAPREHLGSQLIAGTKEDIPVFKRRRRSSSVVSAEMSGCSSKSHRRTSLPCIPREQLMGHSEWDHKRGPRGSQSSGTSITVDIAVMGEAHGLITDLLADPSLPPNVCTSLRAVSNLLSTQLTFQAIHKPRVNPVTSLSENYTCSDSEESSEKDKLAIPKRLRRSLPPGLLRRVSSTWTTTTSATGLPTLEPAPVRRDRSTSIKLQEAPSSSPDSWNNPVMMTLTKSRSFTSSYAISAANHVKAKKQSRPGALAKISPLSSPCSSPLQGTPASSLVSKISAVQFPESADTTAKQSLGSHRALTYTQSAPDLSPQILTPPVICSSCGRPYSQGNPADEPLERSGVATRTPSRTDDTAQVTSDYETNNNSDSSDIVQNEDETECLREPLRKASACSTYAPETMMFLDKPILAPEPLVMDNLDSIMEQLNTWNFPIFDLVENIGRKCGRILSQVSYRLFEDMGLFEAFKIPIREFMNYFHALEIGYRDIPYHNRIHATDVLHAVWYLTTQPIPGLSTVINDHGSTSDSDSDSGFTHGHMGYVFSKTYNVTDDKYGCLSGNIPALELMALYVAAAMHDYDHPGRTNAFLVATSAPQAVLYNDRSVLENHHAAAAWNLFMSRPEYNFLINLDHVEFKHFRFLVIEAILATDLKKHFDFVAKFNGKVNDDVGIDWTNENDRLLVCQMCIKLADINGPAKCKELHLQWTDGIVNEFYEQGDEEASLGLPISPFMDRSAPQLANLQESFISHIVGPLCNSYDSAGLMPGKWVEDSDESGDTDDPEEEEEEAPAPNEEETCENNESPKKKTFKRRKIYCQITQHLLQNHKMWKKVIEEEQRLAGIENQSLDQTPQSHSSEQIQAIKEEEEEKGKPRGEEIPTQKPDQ

Chain of recombinant poly(ADP-ribose) polymerase 2 (PARP2) (Q9UGN5 whole entry, looked up): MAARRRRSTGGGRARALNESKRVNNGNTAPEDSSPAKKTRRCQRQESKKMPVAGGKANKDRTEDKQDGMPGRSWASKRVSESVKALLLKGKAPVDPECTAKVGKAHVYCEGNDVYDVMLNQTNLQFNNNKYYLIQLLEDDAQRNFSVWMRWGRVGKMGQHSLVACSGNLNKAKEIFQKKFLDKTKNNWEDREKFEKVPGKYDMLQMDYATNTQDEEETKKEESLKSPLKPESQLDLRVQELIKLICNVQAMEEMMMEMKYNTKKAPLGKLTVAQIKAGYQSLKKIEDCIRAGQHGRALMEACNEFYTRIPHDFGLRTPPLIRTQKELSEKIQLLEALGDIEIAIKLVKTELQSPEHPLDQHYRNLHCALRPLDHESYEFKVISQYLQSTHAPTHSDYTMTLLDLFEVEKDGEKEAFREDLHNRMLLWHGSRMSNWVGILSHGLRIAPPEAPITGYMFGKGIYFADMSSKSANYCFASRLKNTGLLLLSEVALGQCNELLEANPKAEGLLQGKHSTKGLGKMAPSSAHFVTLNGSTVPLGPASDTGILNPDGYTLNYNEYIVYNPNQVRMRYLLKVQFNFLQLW
T1 sequence (P09874 whole entry): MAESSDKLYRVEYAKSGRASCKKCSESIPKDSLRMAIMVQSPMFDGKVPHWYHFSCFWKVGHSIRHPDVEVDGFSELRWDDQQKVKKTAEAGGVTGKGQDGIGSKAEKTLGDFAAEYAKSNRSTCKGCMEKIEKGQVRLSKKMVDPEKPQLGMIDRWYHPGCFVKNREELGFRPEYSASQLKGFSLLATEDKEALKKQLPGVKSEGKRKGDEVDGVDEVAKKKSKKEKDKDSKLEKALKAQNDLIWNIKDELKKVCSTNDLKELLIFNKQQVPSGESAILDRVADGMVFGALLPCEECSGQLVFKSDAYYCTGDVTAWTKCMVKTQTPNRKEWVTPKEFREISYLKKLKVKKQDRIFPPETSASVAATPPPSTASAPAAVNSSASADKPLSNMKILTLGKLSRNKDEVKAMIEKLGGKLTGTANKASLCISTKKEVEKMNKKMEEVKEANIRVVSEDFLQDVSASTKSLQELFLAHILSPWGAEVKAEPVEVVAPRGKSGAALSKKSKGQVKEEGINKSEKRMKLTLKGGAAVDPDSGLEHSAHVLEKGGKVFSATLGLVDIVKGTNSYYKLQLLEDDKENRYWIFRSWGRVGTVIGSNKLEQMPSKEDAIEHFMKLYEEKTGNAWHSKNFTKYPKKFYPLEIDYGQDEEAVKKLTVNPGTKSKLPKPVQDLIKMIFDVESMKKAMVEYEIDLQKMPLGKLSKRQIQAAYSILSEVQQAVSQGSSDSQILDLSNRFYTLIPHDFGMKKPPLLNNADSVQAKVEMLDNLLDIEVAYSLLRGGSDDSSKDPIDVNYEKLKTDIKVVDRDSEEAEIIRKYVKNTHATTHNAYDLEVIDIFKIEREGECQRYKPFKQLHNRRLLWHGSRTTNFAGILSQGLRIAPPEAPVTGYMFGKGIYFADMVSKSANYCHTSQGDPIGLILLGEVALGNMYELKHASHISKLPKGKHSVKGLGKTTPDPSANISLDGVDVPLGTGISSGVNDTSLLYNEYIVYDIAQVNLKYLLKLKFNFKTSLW
Description for PDE3A: A PDE3A fluorescence polarization (FP) assay in a multi-step format was performed using black, round bottom 384-well plates (Corning, 4514). The testing compounds were serially diluted from stock solutions to 11 concentrations with a 3-fold dilution factor using DMSO. Fifty nl of compound dilutions was mixed with 5 μl of reaction buffer (10 mM Tris-HCl, pH 7.2, 10 mM MgCl2, 0.05% NaN3, 0.1% phosphate-free BSA) containing 0.2 μM FAM-cAMP (BPS, 60200) and 2 nM PDE3A (Sino Biological, 11908-H20B1) enzyme, and incubated for 60 min at 25° C. Afterwards, 15 μl binding agent mixture (Molecular Devices, R8124) was added to each well and the plate was incubated for 60 min at 25° C. The plate was loaded to a BMG PHERAstar FSX to read Fluorescence Polarization (FP) values at a setting of: Ex: 485 nm and Em: 520 nm. Emission light intensity with polarizers parallel (Emi) and emission light intensity with polarizers perpendicular (Emi) were recorded. The Polarization (mP) values were calculated using the following formula: mP=(SignalEml−SignalEm⊥)/(SignalEml+SignalEm⊥).
• 1) The inhibition % of a compound dose is calculated as:
[formula] • wherein mPMin and mPMax refer to the polarization readings in the condition of substrate only and substrate+enzyme, respectively. • 2) The IC50 values were calculated from non-linear curve fitting using following regression equation using a commercial curve fitting software GraphPad Prism 9.2.0.
[formula] • wherein, X refers to Log of compound concentration and Y refers to % Inhibition.

Take `CNC(=O)c1ccc(C2=CCN(Cc3ccc4c([nH]c(=O)c5c(C)cnn54)c3F)CC2)c(F)n1` [Example 165, 6-fluoro-7-((2-fluoro-6-methylcarbamoyl-3′,6′-dihydro-[3,4′-bipyridin]-1′(2′H)-yl)methyl)-3-methylpyrazolo[1,5-a]quinoxalin-4(5H)-one]: the IC50 in assay [1] was over 3330 nM; in assay [2], 0.26 nM; in the assay with MDA-MB-436 cells, 2.75 nM.
As for `CNC(=O)c1ccc(N2CCN(Cc3cc(F)c4c(c3)[nH]c(=O)c3sccc34)CC2)c(C)n1` [Example 38, 9-fluoro-7-((4-(2-methyl-6-(methylcarbamoyl)pyridin-3-yl)piperazin-1-yl)methyl)thieno[2,3-c]quinolin-4(5H)-one], the results for the IC50 (in assay [1]; in the assay with MDA-MB-436 cells) were 16.9 nM and 3.73 nM, respectively.
Turning to `CNC(=O)c1ccc(C2=CCN(Cc3ccc4c([nH]c(=O)c5c(F)cnn54)c3F)CC2)c(F)n1` [Example 197, 7-((2-fluoro-6-methylcarbamoyl-3′,6′-dihydro-[3,4′-bipyridin]-1′(2′H)-yl)methyl)-3,6-difluoropyrazolo[1,5-a]quinoxalin-4(5H)-one], the IC50 in assay [1] was 774 nM; in assay [2], 0.15 nM; with MDA-MB-436 cells, 1.19 nM.
Regarding `CNC(=O)c1ccc(C2CCN(Cc3ccc4c([nH]c(=O)c5occc54)c3F)CC2)c(F)n1` [Example 109, 7-((4-(2-fluoro-6-(methylcarbamoyl)pyridin-3-yl)piperidin-1-yl)methyl)-6-fluorofuro[2,3-c]quinolin-4(5H)-one], the IC50 in assay [1] was 5370 nM; in assay [3], 0.83 nM; in the assay on MDA-MB-436 cells, 5.09 nM.
`CNC(=O)c1ccc(C2=CCN(Cc3ccc4c([nH]c(=O)c5c(C)cnn54)c3F)CC2)cn1` [Example 152, 6-fluoro-3-methyl-7-((6-methylcarbamoyl-3′,6′-dihydro-[3,4′-bipyridin]-1′(2′H)-yl)methyl)pyrazolo[1,5-a]quinoxalin-4(5H)-one]: the IC50 is over 25000 nM against PDE3A, over 1110 nM in assay [1] and 19.3 nM with MDA-MB-436 cells.
As to `O=C(NCC(F)F)c1ccc(N2CCN(Cc3ccc4c([nH]c(=O)c5occc54)c3F)CC2)c(F)n1` [Example 147, 6-fluoro-7-((4-(2-fluoro-6-(2,2-difluoroethylcarbamoyl)pyridin-3-yl)piperazin-1-yl)methyl)furo[2,3-c]quinolin-4(5H)-one], the IC50 against PDE3A was found to be 10900 nM; in assay [1], 2400 nM; in assay [3], 0.56 nM; with MDA-MB-436 cells it was 2 nM.
